Source: ChEMBL document CHEMBL5233269, “Anticancer potential of spirocompounds in medicinal chemistry: A pentennial expedition” (Eur J Med Chem, 2021)

Legend:
[1] = target: Tumour suppressor p53/oncoprotein Mdm2 (Homo sapiens) (UniProt P04637+Q00987); assay: Inhibition of MDM2/p53 (unknown origin) interaction at 10 uM relative to control; format: protein assay
MCF7 [2] = assay: Antiproliferative activity against human MCF7 cells assessed as inhibition of cell growth; format: functional, cell-based
A2780 = assay: Antiproliferative activity against human A2780 cells assessed as inhibition of cell growth; format: functional, cell-based
HT-29 [3] = assay: Antiproliferative activity against human HT-29 cells assessed as inhibition of cell growth; format: functional, cell-based
MDA-MB-231 [4] = assay: Cytotoxicity against human MDA-MB-231 cells at 50 ug/ml relative to control; format: functional; settings: dose 50 µg/ml
L929 = assay: Cytotoxicity against mouse L929 cells at 50 ug/ml relative to control; format: toxicity, cell-based; settings: at 50 µg/mL
A549 [5] = assay: Antiproliferative activity against human A549 cells; format: functional, cell-based
MCF7 [6] = assay: Antiproliferative activity against human MCF7 cells; format: functional, cell-based
[7] = target: cGMP-specific 3',5'-cyclic phosphodiesterase (Homo sapiens) (UniProt O76074); assay: Inhibition of PDE5 (unknown origin) at 3 nM relative to control
K562 = assay: Antiproliferative activity against human K562 cells measured upto 72 hrs by microscopy based analysis; format: functional, cell-based; settings: K562, 72 h
U-937 = assay: Antiproliferative activity against human U-937 cells measured upto 72 hrs by microscopy based analysis; format: functional, cell-based; settings: U-937, 72 h
ECa-109 cell line = assay: Cytotoxicity against human EC109 cells assessed as inhibition of tumor cell proliferation incubated for 72 hrs by MTT assay; format: functional, cell-based; settings: ECa-109, 72 h
SMMC-7721 = assay: Cytotoxicity against human SMMC-7721 cells assessed as inhibition of tumor cell proliferation incubated for 72 hrs by MTT assay; format: functional, cell-based; settings: SMMC-7721, 72 h
A549 [8] = assay: Cytotoxicity against human A549 cells assessed as inhibition of tumor cell proliferation incubated for 72 hrs by MTT assay; format: functional, cell-based; settings: A549, 72 h
MGC-803 = assay: Cytotoxicity against human MGC-803 cells assessed as inhibition of tumor cell proliferation incubated for 72 hrs by MTT assay; format: functional, cell-based; settings: MGC-803, 72 h
A-375 [9] = assay: Cytotoxicity against human A-375 cells at 10 ug/ml incubated for 24 hrs by MTT assay; format: functional; settings: dose 10 µg/ml
A-375 [10] = assay: Cytotoxicity against human A-375 cells at 100 ug/ml incubated for 24 hrs by MTT assay; format: functional; settings: dose 100 µg/ml
MCF7 [11] = assay: Antiproliferative activity against human MCF7 cells assessed as cell growth inhibition; format: functional, cell-based
MDA-MB-231 [12] = assay: Antiproliferative activity against human MDA-MB-231 cells assessed as cell growth inhibition; format: functional, cell-based
MDA-MB-231 [13] = assay: Antiproliferative activity against human MDA-MB-231 cells; format: functional, cell-based
HeLa [14] = assay: Antiproliferative activity against human HeLa cells; format: functional, cell-based
A549 [15] = assay: Antiproliferative activity against human A549 cells assessed as reduction in cell viability; format: functional, cell-based
MCF7 [16] = assay: Antiproliferative activity against human MCF7 cells assessed as reduction in cell viability; format: functional, cell-based
MCF7 [17] = assay: Anticancer activity against human MCF7 cells incubated for 48 hrs by MTT assay; format: functional, cell-based; settings: MCF7, 48 h
A549 [18] = assay: Anticancer activity against human A549 cells incubated for 48 hrs by MTT assay; format: functional, cell-based; settings: A549, 48 h
HepG2 [19] = assay: Anticancer activity against human HepG2 cells incubated for 48 hrs by MTT assay; format: functional, cell-based; settings: HepG2, 48 h
HCT-116 = assay: Anticancer activity against human HCT-116 cells incubated for 48 hrs by MTT assay; format: functional, cell-based; settings: HCT-116, 48 h
[20] = Anticancer activity against human U87 cells incubated for 48 hrs by MTT assay; format: functional, cell-based, U-87MG ATCC; settings: U-87 MG
MCF7 [21] = assay: Growth inhibition of human MCF7 cells assessed as reduction in cell viability by SRB assay; format: functional
COLO 205 = assay: Growth inhibition of human COLO 205 cells assessed as reduction in cell viability by SRB assay; format: functional
PC-3 = assay: Growth inhibition of human PC-3 cells assessed as reduction in cell viability by SRB assay; format: functional
[22] = Anticancer activity against human Panel (56 tumour cell lines) at 10 uM relative to control; format: functional
HepG2 [23] = assay: Antiproliferative activity against human HepG2 cells incubated for 2 days by MTT assay; format: functional, cell-based; settings: HepG2, 48 h
MCF7 [24] = assay: Antiproliferative activity against human MCF7 cells incubated for 2 days by MTT assay; format: functional, cell-based; settings: MCF7, 48 h
HT-29 [25] = assay: Antiproliferative activity against human HT-29 cells incubated for 2 days by MTT assay; format: functional, cell-based; settings: HT-29, 48 h
T47D = assay: Antiproliferative activity against human T47D cells incubated for 2 days by MTT assay; format: functional, cell-based; settings: 48 h
HFF = assay: Antiproliferative activity against human HFF cells incubated for 2 days by MTT assay; format: functional, cell-based; settings: 48 h
B16-F10 = assay: Anticancer activity against mouse B16-F10 cells; format: functional, cell-based
HeLa [26] = assay: Anticancer activity against human HeLa cells assessed as inhibition of cell proliferation; format: functional, cell-based

Chain of Tumour suppressor p53/oncoprotein Mdm2 (Homo sapiens) (P04637 whole entry, looked up): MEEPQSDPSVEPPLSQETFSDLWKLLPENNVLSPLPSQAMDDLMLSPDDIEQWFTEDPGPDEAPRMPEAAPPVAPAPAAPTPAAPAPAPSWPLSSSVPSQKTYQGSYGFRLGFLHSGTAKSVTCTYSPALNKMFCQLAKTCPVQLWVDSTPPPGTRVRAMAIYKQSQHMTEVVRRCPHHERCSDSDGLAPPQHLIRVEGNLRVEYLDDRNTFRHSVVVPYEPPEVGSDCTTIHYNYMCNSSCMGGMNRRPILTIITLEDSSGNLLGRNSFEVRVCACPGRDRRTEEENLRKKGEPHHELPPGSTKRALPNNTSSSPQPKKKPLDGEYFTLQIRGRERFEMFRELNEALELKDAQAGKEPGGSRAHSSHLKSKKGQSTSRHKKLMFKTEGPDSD
Chain of Tumour suppressor p53/oncoprotein Mdm2 (Homo sapiens) (Q00987 whole entry, looked up): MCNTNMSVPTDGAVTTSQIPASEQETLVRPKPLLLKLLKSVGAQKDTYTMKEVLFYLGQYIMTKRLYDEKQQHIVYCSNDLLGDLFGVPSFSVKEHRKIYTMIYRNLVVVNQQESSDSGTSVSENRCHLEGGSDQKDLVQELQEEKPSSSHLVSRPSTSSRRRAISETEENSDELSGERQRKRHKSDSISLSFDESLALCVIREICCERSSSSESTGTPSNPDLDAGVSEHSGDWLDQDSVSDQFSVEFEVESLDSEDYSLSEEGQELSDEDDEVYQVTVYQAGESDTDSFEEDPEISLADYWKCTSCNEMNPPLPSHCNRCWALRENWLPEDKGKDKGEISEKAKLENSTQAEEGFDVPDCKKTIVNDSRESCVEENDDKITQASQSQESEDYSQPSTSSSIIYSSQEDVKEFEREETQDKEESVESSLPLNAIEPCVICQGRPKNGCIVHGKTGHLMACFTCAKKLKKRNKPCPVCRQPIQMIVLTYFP

NC(=O)C1CN(C(=O)N2CCCCC2)C2(C(=O)Nc3ccccc32)C1c1ccccc1O (stereo not given)
inhibition [1]: 65.4%

O=C1CC2(CCN(S(=O)(=O)c3ccccc3)CC2)Oc2ccccc21
IC50 (MCF7 [2]): 5.62 µM
IC50 (A2780): 0.31 µM
IC50 (HT-29 [3]): 0.47 µM

CN1CCN(Cc2ccc([N+](=O)[O-])cc2)P12=NP(N1CCCC1)(N1CCCC1)=NP(N1CCCC1)(N1CCCC1)=N2 (stereo not given)
Activity (MDA-MB-231 [4]): 30%
Activity (L929): 70%

O=C1CC2(CCN(S(=O)(=O)c3cccc4ccccc34)CC2)Oc2ccccc21
IC50 (MCF7 [2]): 6.02 µM
IC50 (A2780): 0.316 µM
IC50 (HT-29 [3]): 0.69 µM

N#CC1=C(N)Oc2c(c(=O)oc3ccccc23)C12C(=O)N(Cc1cccc(Br)c1)c1ccccc12 (stereo not given)
IC50 (A549 [5]): 29.3 µM
IC50 (MCF7 [6]): 16.2 µM

CCOC(=O)N1CCC2(CC1)NC(=O)c1ccccc1N2
inhibition [7]: 100%

O=C1CC(c2ccccc2)C2(C(=O)Oc3ccccc3C2=O)C(c2ccccc2)C1 (stereo not given)
IC50 (K562): 74 µM
IC50 (U-937): 51.6 µM

CCC(C)N1C(=O)C2(C(C#N)=C(N)Oc3c2c(=O)oc2ccccc32)c2ccccc21 (stereo not given)
IC50 (A549 [5]): 34.1 µM
IC50 (MCF7 [6]): 37.6 µM

C[C@]12CC[C@H](O)CC1=CCC1C2CC[C@@]2(C)C1CC[C@@H]2C1=CC2(C(=O)Nc3ccc(F)cc32)C(C#N)=C(N)N1 (stereo not given in full)
IC50 (ECa-109 cell line): 2.6 µM
IC50 (SMMC-7721): 10.9 µM
IC50 (A549 [8]): 21.3 µM
IC50 (MGC-803): 13.8 µM

CCN1C(=O)C2(c3ccccc31)N(C)CC(n1ccc3ccccc31)C2(C#N)C#N (stereo not given)
Activity (A-375 [9]): 95.86%
Activity (A-375 [10]): 85.69%

O=C1N(C2CCCCC2)C(=O)C2(CC(c3ccccc3O)=NCCO2)N1C1CCCCC1 (stereo not given)
IC50 (MCF7 [11]): 66.3 µM
IC50 (MDA-MB-231 [12]): 97.1 µM

CN1CCN(Cc2ccc([N+](=O)[O-])cc2)P12=NP(N1CCCCC1)(N1CCCCC1)=NP(N1CCCCC1)(N1CCCCC1)=N2 (stereo not given)
Activity (MDA-MB-231 [4]): 30%
Activity (L929): 70%

COc1ccc(-n2nc(-c3ccccc3)nc2N2C(=O)COC23C=CC(=O)C=C3)cc1
IC50 (MDA-MB-231 [13]): 0.0277 µM
IC50 (HeLa [14]): 0.01 µM
IC50 (A549 [15]): 0.0268 µM
IC50 (MCF7 [16]): 0.0888 µM

CCOC(=O)C1CN(C(=O)N2CCCCC2)C2(C(=O)Nc3ccccc32)C1c1ccccc1O (stereo not given)
inhibition [1]: 57.7%

CCOC(=O)[C@H]1[C@@H](NO)[C@@H]2c3ccccc3OC(C)(C)[C@H]2[C@H](O)[C@]12C(=O)Nc1ccc(F)cc12
IC50 (MCF7 [17]): 2.5 µM
IC50 (A549 [18]): 4.8 µM
IC50 (HepG2 [19]): 16.2 µM
IC50 (HCT-116): 25.4 µM
IC50 [20]: 41.9 µM

COP1(=O)N(C)N=NC12SC1=CCCCC1=C2C#N (stereo not given)
GI50 (MCF7 [21]): 6.35 µM
GI50 (COLO 205): 18.4 µM
GI50 (PC-3): 12.4 µM

CC(C)(C)OC(=O)N1CCC2(CC1)NC(=O)c1ccccc1N2
inhibition at 10 µM [22]: 100%

COc1ccc(C2=NOC3(Cc4ccccc4C3=O)C2c2ccc(S(C)(=O)=O)cc2)cc1OC (stereo not given)
IC50 (HepG2 [23]): 0.059 µM
IC50 (MCF7 [24]): 53.7 µM
IC50 (HT-29 [25]): 94.6 µM
IC50 (T47D): 21.4 µM
IC50 (HFF): 33.9 µM

Cc1cc(Cl)ccc1[C@@H]1N(C)C2(CC13C(=O)N(C)C(=O)N(C)C3=O)C(=O)c1ccccc1C2=O
IC50 (B16-F10): 8.4 µM
IC50 (HeLa [26]): 434 µM

CCOP1(=O)N(CC)N=NC12SC1=CCCCC1=C2C#N (stereo not given)
GI50 (MCF7 [21]): 5.03 µM
GI50 (COLO 205): 17.8 µM
GI50 (PC-3): 9.97 µM
